Legend:
[1] = tested on: aged-impaired (AI) Long-Evans rats; experiment: Morris Water Maze (MWM) retention trial, levetiracetam; type: in vivo, rat; conditions: for time spent in the target quadrant (percentage of total swimming time): retention trial 24 hours after training
Procedure: Six aged-impaired (AI) Long-Evans rats (as characterized above) were tested for their memory of new spatial information in the Morris water maze (MWM), under different drug/control treatment conditions (vehicle control and two different dosage levels of levetiracetam). A retention trial was performed after the training trials, as described below. The MWM apparatus consists of a large, circular pool (diameter 1.53 m; height, 0.58 m) filled with water (27° C.) that is made opaque through the addition of non-toxic pigment or some other substance. In the typical “hidden platform” version of the test, rats are trained to find a camouflaged white escape platform (height, 34.5 cm) that is positioned in the center of one quadrant of the maze about 1.0 cm below the water surface. This platform can be retracted to the bottom of the tank or raised to its normal position from outside the maze during behavioral testing. The location of the platform remains constant from trial to trial. Because there are no local cues that mark the position of the platform, the rat's ability to locate it efficiently from any starting position at the perimeter of the pool depends on using information surrounding the maze. The maze is surrounded by black curtains to which white patterns are affixed to provide a configuration of spatial cues. A second platform (height 37.5 cm), with its surface painted black is elevated 2 cm above the water surface during cue training to control for factors unrelated to cognition. The behavior of a rat in the pool is recorded by a camera that is suspended 2.5 m above the center of the pool. The camera is connected to a video tracking system (HVS Image Advanced Tracker VP200) and a PC computer running HVS software developed by Richard Baker of HVS Image, Hampton, UK. […] On each training trial, the rat was released in the maze from one of four equally spaced starting positions around the perimeter of the pool. […] In the retention trial, the time the AI rats spent swimming in the target quadrant is measured and further plotted as a percentage of total swimming time. […]

aged-impaired (AI) rats = experiment: Radial Arm Maze (RAM) task with one-hour delay, levetiracetam; type: in vivo, rat; conditions: for effective in reducing the number of errors in the radial arm maze: levetiracetam on its own
Procedure: The effects of levetiracetam on the spatial memory retention of aged-impaired (AI) rats were assessed in a Radial Arm Maze (RAM) behavioral task using vehicle control and five different dosage levels of levetiracetam (1.25 mg/kg/day, 2.5 mg/kg/day, 5 mg/kg/day, 10 mg/kg/day and 20 mg/kg/day). RAM behavioral tasks were performed on ten AI rats. All six treatment conditions were tested on all ten rats, as described above for the MWM test. The RAM apparatus used consisted of eight equidistantly spaced arms. An elevated maze arm (7 cm width×75 cm length) projected from each facet of an octagonal center platform (30 cm diameter, 51.5 cm height). […] A food well (4 cm diameter, 2 cm deep) was located at the distal end of each arm. Froot Loops™ (Kellogg Company) were used as rewards. […] Numerous extra maze cues surrounding the apparatus were also provided. The AI rats were initially subjected to a pre-training test (Chappell et al. Neuropharmacology 37: 481-487, 1998). […] In the habituation phase, rats were familiarized to the maze for an 8-minute session on four consecutive days. In each of these sessions food rewards were scattered on the RAM, initially on the center platform and arms and then progressively confined to the arms. After this habituation phase, a standard training protocol was used, in which a food pellet was located at the end of each arm. Rats received one trial each day for 18 days. Each daily trial terminated when all eight food pellets had been obtained or when either 16 choices were made or 15 minutes had elapsed. After completion of this training phase, a second training phase was carried out in which the memory demand was increased by imposing a brief delay during the trial. At the beginning of each trial, three arms of the eight-arm maze were blocked. Rats were allowed to obtain food on the five arms to which access was permitted during this initial ‘information phase’ of the trial. Rats were then removed from the maze for 60 seconds, during which time the barriers on the maze were removed, thus allowing access to all eight arms. Rats were then placed back onto the center platform and allowed to obtain the remaining food rewards during this ‘retention test’ phase of the trial. The identity and configuration of the blocked arms varied across trials. The number of “errors” the AI rats made during the retention test phase was tracked. An error occurred in the trial if the rats entered an arm from which food had already been retrieved in the pre-delay component of the trial, or if it re-visited an arm in the post-delay session that had already been visited. After completion of the pre-training test, rats were subjected to trials with more extended delay intervals, i.e., a one-hour delay, between the information phase (presentation with some blocked arms) and the retention test (presentation of all arms). During the delay interval, rats remained off to the side of the maze in the testing room, on carts in their individual home cages. […] Injections were given every other day with intervening washout days. Each AI rat was treated with all six conditions within 23 days of testing. To counterbalance any potential bias, drug effect was assessed using ascending-descending dose series, i.e., the dose series was given first in an ascending order and then repeated in a descending order. Therefore, each dose had two determinations. Parametric statistics (paired t-tests) was used to compare the retention test performance of the AI rats in the one-hour delay version of the RAM task in the context of different doses of levetiracetam and vehicle control (see FIG. 3).

DG/CA3 of aMCI subjects = experiment: fMRI activity in DG/CA3 during explicit 3-alternative forced choice task; type: in vivo, human; conditions: for DG/CA3 hyperactivity: two weeks

## CC[C@@H](C(N)=O)N1CCCC1=O [levetiracetam, (2S)-2-(2-oxopyrrolidin-1-yl)butanamide]
[1]; levetiracetam 5 mg/kg/day i.p., vs vehicle
  time spent in the target quadrant (percentage of total swimming time): did not significantly improve
[1]; levetiracetam 10 mg/kg/day i.p., retention trial
  time spent in the target annulus: effectiveness of the 10 mg/kg/day levetiracetam treatment was also seen
[1]; levetiracetam 10 mg/kg/day i.p.
  time spent in the target quadrant (percentage of total swimming time): approximately 35%
aged-impaired (AI) rats; AI rats
  effective doses of levetiracetam in the animal model: 5 to 10 mg/kg
aged-impaired (AI) rats; levetiracetam 5 mg/kg/day i.p., one-hour delay, p=0.057 vs vehicle
  average no. of errors ± standard error of the mean (SEM): 0.75±0.32
aged-impaired (AI) rats; levetiracetam 10 mg/kg/day i.p., one-hour delay, p=0.042 vs vehicle
  average no. of errors ± SEM: 0.80±0.27
aged-impaired (AI) rats; levetiracetam 20 mg/kg
  performance of AI rats in the radial maze task: fails to improve the performance
aged-impaired (AI) rats; 1.25 mg/kg
  effective in reducing the number of errors in the radial arm maze: not at 1.25 mg/kg or 2.5 mg/kg
aged-impaired (AI) rats; 2.5 mg/kg
  effective in reducing the number of errors in the radial arm maze: not at 1.25 mg/kg or 2.5 mg/kg
DG/CA3 of aMCI subjects; levetiracetam 62.5 mg BID cohort
  DG/CA3 hyperactivity: does not significantly reduce
DG/CA3 of aMCI subjects; levetiracetam 125 mg twice a day for two weeks, vs placebo, p=0.037
  DG/CA3 activity during lure stimuli correctly identified as similar: reduces DG/CA3 hyper-activity
DG/CA3 of aMCI subjects; levetiracetam 250 mg BID cohort
  DG/CA3 hyperactivity: does not significantly reduce

Source: US20220062296A1, “COMBINATIONS OF GABAA ALPHA 5 AGONISTS AND SV2A INHIBITORS AND METHODS OF USING IN THE TREATMENT OF COGNITIVE IMPAIRMENT” (AGENEBIO, INC., priority 2020, published 2022)
